Results: publication doi:10.1101/2025.02.25.640225v1 (biorxiv, 2025)

Tests used:
DapE = DapE (Mycobacterium tuberculosis, UniProt P9WHS9)
Rv1723 = Rv1723 (Mycobacterium tuberculosis, UniProt P71981)
Rv0309 = Rv0309 (Mycobacterium tuberculosis, UniProt O07236)
Chain of Rv0309 (O07236 19-218 limits assumed): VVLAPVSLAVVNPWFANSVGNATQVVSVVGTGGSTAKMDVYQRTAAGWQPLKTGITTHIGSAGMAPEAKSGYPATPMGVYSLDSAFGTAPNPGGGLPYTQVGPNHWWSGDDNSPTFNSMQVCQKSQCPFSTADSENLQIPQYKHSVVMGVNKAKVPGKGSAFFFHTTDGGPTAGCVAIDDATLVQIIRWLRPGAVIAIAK

Chain of DapE (P9WHS9 whole entry, looked up): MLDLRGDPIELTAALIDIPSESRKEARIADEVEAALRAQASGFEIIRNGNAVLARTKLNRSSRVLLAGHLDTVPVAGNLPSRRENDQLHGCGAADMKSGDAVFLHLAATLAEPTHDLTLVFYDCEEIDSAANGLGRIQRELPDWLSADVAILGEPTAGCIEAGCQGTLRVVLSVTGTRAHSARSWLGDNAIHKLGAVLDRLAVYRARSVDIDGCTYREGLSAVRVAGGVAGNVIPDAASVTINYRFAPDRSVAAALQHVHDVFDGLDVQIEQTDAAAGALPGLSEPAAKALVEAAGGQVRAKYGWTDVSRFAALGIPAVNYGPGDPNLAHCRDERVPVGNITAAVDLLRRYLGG
Chain of Rv1723 (P71981 1-415): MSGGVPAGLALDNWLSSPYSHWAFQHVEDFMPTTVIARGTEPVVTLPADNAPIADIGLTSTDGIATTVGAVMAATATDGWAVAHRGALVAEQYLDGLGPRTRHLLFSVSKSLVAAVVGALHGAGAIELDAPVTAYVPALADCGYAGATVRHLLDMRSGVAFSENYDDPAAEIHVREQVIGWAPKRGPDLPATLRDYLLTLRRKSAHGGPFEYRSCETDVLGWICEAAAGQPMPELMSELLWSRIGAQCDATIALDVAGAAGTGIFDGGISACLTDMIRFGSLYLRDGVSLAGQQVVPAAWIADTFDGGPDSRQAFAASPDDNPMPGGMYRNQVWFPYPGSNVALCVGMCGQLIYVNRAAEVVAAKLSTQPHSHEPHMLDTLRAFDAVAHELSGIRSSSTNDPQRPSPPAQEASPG

SMILES: C[C@@H](O)[C@H]1C(=O)N2C(C(=O)O)=C(S[C@H]3C[C@@H](C(=O)N(C)C)N(C(=O)CCCCC[N+]4=C(/C=C/C=C/C=C5/N(C)c6ccc(S(=O)(=O)O)cc6C5(C)C)C(C)(C)c5cc(S(=O)(=O)[O-])ccc54)C3)[C@H](C)[C@H]12 [Mero-sCy5]
- fluorescent gel labelling (SDS-PAGE) (DapE): Mero-sCy5 labeled all enzymes

SMILES: CO[C@@]1(NC(=O)Cc2cccs2)C(=O)N2C(C(=O)O)=C(COC(N)=O)CS[C@@H]21 [cefoxitin]
- native MS (acyl-enzyme) (Rv1723): binding to cefoxitin was only partial

SMILES: C[C@@H](O)[C@H]1C(=O)N2C(C(=O)O)=C(S[C@@H]3CN[C@H](C(=O)N(C)C)C3)[C@H](C)[C@H]12 [meropenem]
- native MS (acyl-enzyme); competition of Mero-sCy5 labelling; inhibition of nitro (Rv0309): Rv0309 partially bound meropenem
